Like-named read-outs stand apart in the source and are kept apart here.
Key:
FRTL-5 cells = test: Effect of 2-aminopurine (PKR inhibitor) in dsRNA-transfected FRTL-5 cells; type: cell-based, rat; details: FRTL-5, 10 mM 2-AP
Protocol: FIG. 2. […] After total RNA purification, 20 μg of total RNA were analyzed with indicated radiolabeled cDNA probes. […] Cells were transfected Lipofectamine 2000 alone (L) or with the indicated amount of Poly (I:C) (RNA) or endotoxin-free E. coli DNA. After 12 and 24 hours, 20 μg of total RNA was analyzed with the indicated radiolabeled cDNA probes. […] In (C), the effect of 2-aminopurine (a PKR inhibitor) on transfected dsRNA-induced TLR3 mRNA levels was measured. Again cells were transfected with Lipofectamine 2000 alone or Lipofectamine with the indicated amount of Poly (I:C) or endotoxin-free E. coli DNA in the presence or absence of 10 mM 2-aminopurine. After the indicated incubation time, cells were harvested and 20 μg of total RNA was analyzed with the indicated radiolabeled cDNA probes. […] Data are representative of multiple experiments. In sum, dsRNA transfection is needed to increase gene expression of signals implicated in autoimmune-inflammatory diseases such as MHC genes and high levels of Type I interferons, not simply activation of TLR by incubating thyrocytes with dsRNA by dsRNA binding to TLR3 receptors. Moreover, despite increased PKR, the critical signal involved in TLR3/Type I IFN signaling by dsRNA transfection is not PKR mediated. […]

C57BL/6J mice = test: LPS-induced endotoxic shock in C57BL/6J mice: survival and signs of shock; type: in vivo, mouse; details: for Signs of shock at 12 hours, % of Animals: LPS-challenged mice
[1] = system: TLR3, MHC Class I, PKR, IP-10 mRNA in FRTL-5 cells; details: FRTL-5, 100 U/ml IFN
ERK1/2 MAPK, ELK1 = test: ERK1/2 MAPK phosphorylation and Elk1 transactivation in FRTL-5 thyrocytes; type: cell-based, rat; details: FRTL-5, pCMV-BD-Elk 1 and pFR-luc, 6 hrs
Protocol: Poly (I:C) (the dsRNA ligand commonly used as a test compound) activates the TLR3 mediated NF-κ β/Map kinase signal pathway in FRTL-5 thyrocytes. FRTL-5 cells were transiently transfected with 100 ng of luciferase reporter pNF-κB Luc and 2 ng of internal control phRL-Tk. After 36 h, cells were incubated with 100 μg/ml poly (I:C) or endotoxin-free E. coli DNA for 6 h. Measurements were made with the Dual Luciferase Assay System (Promega). Poly (I:C) increased TLR3 mediated NF-κB mediated luciferase activity (gene expression) 6 fold; dsDNA had no effect. Further support came from electrophoretic mobility shift analyses (EMSA). When FRTL-5 thyrocytes were incubated with 100 μg/ml poly (I:C), IL-1β, TNF-α or TPA, cells lysed after 1 h, and nuclear translocation of NF-κB measured. The poly (I:C) induced p50/p65 complex formation as measured by the presence of a specific new protein/DNA complex and its inhibition by anti-p50 and p65 antibodies, but not by anti-p52, c-rel and Rel B antibodies; the complex was also supershifted by anti-p50. […] Additionally, when FRTL-5 cells were co-transfected with pCMV-BD-Elk 1 and pFR-luc, then incubated with 100 μg/ml poly (I:C) or IL-1β for 6 hrs, ELK1 transactivation was increased 2-fold by both Poly (I:C) and IL-1β when measured with the Dual Luciferase Assay System (Promega). […]

NF-κB = NF-κB Luc reporter gene in FRTL-5 thyrocytes; type: cell-based, rat; details: FRTL-5, pNF-κB Luc, 100 μg/ml, 6 h
Protocol: Poly (I:C) (the dsRNA ligand commonly used as a test compound) activates the TLR3 mediated NF-κ β/Map kinase signal pathway in FRTL-5 thyrocytes. FRTL-5 cells were transiently transfected with 100 ng of luciferase reporter pNF-κB Luc and 2 ng of internal control phRL-Tk. After 36 h, cells were incubated with 100 μg/ml poly (I:C) or endotoxin-free E. coli DNA for 6 h. Measurements were made with the Dual Luciferase Assay System (Promega). Poly (I:C) increased TLR3 mediated NF-κB mediated luciferase activity (gene expression) 6 fold; dsDNA had no effect. Further support came from electrophoretic mobility shift analyses (EMSA). When FRTL-5 thyrocytes were incubated with 100 μg/ml poly (I:C), IL-1β, TNF-α or TPA, cells lysed after 1 h, and nuclear translocation of NF-κB measured. The poly (I:C) induced p50/p65 complex formation as measured by the presence of a specific new protein/DNA complex and its inhibition by anti-p50 and p65 antibodies, but not by anti-p52, c-rel and Rel B antibodies; the complex was also supershifted by anti-p50. […] Additionally, when FRTL-5 cells were co-transfected with pCMV-BD-Elk 1 and pFR-luc, then incubated with 100 μg/ml poly (I:C) or IL-1β for 6 hrs, ELK1 transactivation was increased 2-fold by both Poly (I:C) and IL-1β when measured with the Dual Luciferase Assay System (Promega). NF-κB/MAP Kinase signals evoked by TLR3 binding dsRNA are only one portion of TLR3 functional expression.
Cells were co-transfected with ISRE-Luc and pRLTk-Int and then treated without (none) or with Poly I:C (100 μg/ml), LPS (100 ng/ml), IL-1β (10 ng/ml) TNF-α (25 ng/ml), IFN-β (100 U/ml) or IFN-γ (1000 U/ml) in the presence of DMSO (−) or C10 for 6 hours. Data were obtained using the Dual Luciferase Assay system. The effect on the ISRE element is not duplicated by an NF-κB reporter plasmid despite the similarity of the two elements: ([…])5 (SEQ ID NO:3) vs. ([…])5 (SEQ ID NO:4), respectively. Data are representative of multiple experiments.
Plasmids for Reporter Gene Assays. Human IRF-3 was amplified from human cDNA and cloned into pCR 2.1 by the TOPO/TA (Invitrogen, Carlsbad, Calif.) cloning method, and then sequenced. IRF-3 was then excised by EcoRI digestion and subcloned into pCMV-BD (Stratagene, La Jolla, Calif.) for use in transactivation assays. To construct IFN-β-luc the human IFN-β promoter sequence was amplified from human genomic DNA (Clontech, Palo Alto, Calif.)) using Ex Taq™ Polymerase (Takara, Madison, Wis.). The PCR fragment contained human IFN-β promoter sequence from −125 to +34 relative to the transcription start site (+1) and incorporated KpnI and XhoI restriction sites at the 5′ and 3′ ends, respectively. The primers were as follows: hIFN-β (−125) KpnI (5′-[…]-3′) (SEQ ID NO:9) and hIFN-β (+34) XhoI (5′-[…]-3′). (SEQ ID NO: 10) The fragment was digested with KpnI and XhoI then ligated into a similarly digested pGL3 Basic (Promega, Madison, Wis.) vector. The human MyD88 wild and dominant negative expression vectors were kindly donated by Dr. P. E. Auron. pFR-luc (5×Gal4 DNA binding domains and minimal TATA box), ISRE-Luc, NF-κB-luc and the Elk1 trans-Reporting System were purchased from Stratagene. pRL TK-Int was purchased from Promega.
Transient Expression Analysis. A DEAE procedure was used to transfect promoter-luciferase gene constructs and expression plasmids into FRTL-5 cells. Briefly, FRTL-5 cells were grown in 24-well plates to about 70% confluence, washed with 0.5 ml of serum-free culture medium (6H0 medium), then exposed to 125 μl of premade plasmid-DEAE mixture per well for 15 min at room temperature. The plasmid-DEAE mixture was prepared by incubating 100 ng of plasmid DNA, unless otherwise noted in individual experiments, with 3.125 μl of DEAE-Dextran (10 mg/ml) (Promega, Madison Wis.). FRTL-5 cells were incubated with this mixture for 2 hr at 37° C. in a CO2 incubator, before 2 ml of 6H5 medium was added. […]

[2] = LPS 20 mg/kg i/p, drug i/p 30 min before LPS, 8 mice per group
[3] = challenged with LPS first, treated after 12 hours when shock had appeared

Compound: Nc1ncc2[nH]cnc2n1 [Compound 2-AP, 2-aminopurine]
- dsRNA-transfection-increased NF-κB p65/p50 complex formation (EMSA) (FRTL-5 cells): strongly inhibited
- dsRNA-transfection-induced increase in IFN-β mRNA levels (FRTL-5 cells): did not inhibit

Compound: CNC[C@H](O)[C@@H](O)[C@H](O)[C@H](O)CO.Cc1c(Nc2ncccc2C(=O)O)cccc1C(F)(F)F [flunixin of meglumine]
- Number of surviving mice, 1 week (C57BL/6J mice; [2]): 0
- Number of surviving mice, 6 hrs (C57BL/6J mice; [2]): 8
- Number of surviving mice, 12 hrs (C57BL/6J mice; [2]): 8
- Number of surviving mice, 18 hrs (C57BL/6J mice; [2]): 4
- Number of surviving mice, 36 hrs (C57BL/6J mice; [2]): 0
- Signs of shock at 12 hours, % of Animals (C57BL/6J mice): 100 % of Animals
- Number of surviving mice, 1 week (C57BL/6J mice; [3]): 0
- Number of surviving mice, 18 hrs (C57BL/6J mice; [3]): 0
- Number of surviving mice, 36 hrs (C57BL/6J mice; [3]): 0

Compound: C[C@]12C=CC(=O)C=C1CC[C@@H]1[C@@H]2[C@@H](O)C[C@@]2(C)[C@H]1CC[C@]2(O)C(=O)CO [prednisolone]
- Number of surviving mice, 1 week (C57BL/6J mice; [2]): 0
- Number of surviving mice, 6 hrs (C57BL/6J mice; [2]): 8
- Number of surviving mice, 12 hrs (C57BL/6J mice; [2]): 8
- Number of surviving mice, 18 hrs (C57BL/6J mice; [2]): 3
- Number of surviving mice, 36 hrs (C57BL/6J mice; [2]): 0
- Signs of shock at 12 hours, % of Animals (C57BL/6J mice): 100 % of Animals
- Number of surviving mice, 1 week (C57BL/6J mice; [3]): 0
- Number of surviving mice, 18 hrs (C57BL/6J mice; [3]): 1
- Number of surviving mice, 36 hrs (C57BL/6J mice; [3]): 0

Compound: IFN-γ: a Type II IFN, from Biosource International
- GAPDH mRNA, % of Control at 0 Time (±15%) ([1]; 1 hr): 100 % of Control at 0 Time
- IP-10 mRNA, % of Control at 0 Time (±15%) ([1]; 1 hr): 100 % of Control at 0 Time
- MHC Class I mRNA, % of Control at 0 Time (±15%) ([1]; 1 hr): 100 % of Control at 0 Time
- PKR mRNA, % of Control at 0 Time (±15%) ([1]; 1 hr): 100 % of Control at 0 Time
- TLR3 mRNA, % of Control at 0 Time (±15%) ([1]; 1 hr): 100 % of Control at 0 Time
- GAPDH mRNA, % of Control at 0 Time (±15%) ([1]; 3 hr): 100 % of Control at 0 Time
- IP-10 mRNA, % of Control at 0 Time (±15%) ([1]; 3 hr): 100 % of Control at 0 Time
- MHC Class I mRNA, % of Control at 0 Time (±15%) ([1]; 3 hr): 100 % of Control at 0 Time
- PKR mRNA, % of Control at 0 Time (±15%) ([1]; 3 hr): 100 % of Control at 0 Time
- TLR3 mRNA, % of Control at 0 Time (±15%) ([1]; 3 hr): 100 % of Control at 0 Time
- GAPDH mRNA, % of Control at 0 Time (±15%) ([1]; 6 hr): 100 % of Control at 0 Time
- IP-10 mRNA, % of Control at 0 Time (±15%) ([1]; 6 hr): 100 % of Control at 0 Time
- MHC Class I mRNA, % of Control at 0 Time (±15%) ([1]; 6 hr): 100 % of Control at 0 Time
- PKR mRNA, % of Control at 0 Time (±15%) ([1]; 6 hr): 100 % of Control at 0 Time
- TLR3 mRNA, % of Control at 0 Time (±15%) ([1]; 6 hr): 100 % of Control at 0 Time
- GAPDH mRNA, % of Control at 0 Time (±15%) ([1]; 12 hr): 100 % of Control at 0 Time
- IP-10 mRNA, % of Control at 0 Time (±15%) ([1]; 12 hr): 100 % of Control at 0 Time
- MHC Class I mRNA, % of Control at 0 Time (±15%) ([1]; 12 hr): 100 % of Control at 0 Time
- PKR mRNA, % of Control at 0 Time (±15%) ([1]; 12 hr): 100 % of Control at 0 Time
- TLR3 mRNA, % of Control at 0 Time (±15%) ([1]; 12 hr): 100 % of Control at 0 Time

Compound: IL-1β: cytokine used as positive control
- increase of ELK1 transactivation (ERK1/2 MAPK, ELK1): 2 fold

Compound: Poly (I:C) [reference compound]
- increase of NF-κB mediated luciferase activity (NF-κB): 6 fold
- increase of ELK1 transactivation (ERK1/2 MAPK, ELK1): 2 fold
